Assay type in all cases: biochemical
One assay has as its target T1, CDK1/cyclinB (Homo sapiens, UniProt P06493).
T1 construct: purchased Millipore
Put plainly: CDK1/cyclinB kinase assay, IMAP fluorescence polarization. Particulars: read-out: CDK1 IC50. As to the method: (§1) Kinase assays were performed on recombinant purified enzymes using the non-radioactive IMAP fluorescence polarization assay format.
(§2) Compound stocks were prepared and diluted in DMSO and were added to kinase reactions at a 1/100 dilution for a final concentration of 1% DMSO. The components were added together to final concentrations listed in the tables below and incubated for two hours at room temperature.
(§3) The reactions were stopped by addition of stop solution.
The samples were allowed to incubate for one more hour at room temperature and then the fluorescence polarization was measured.
On the technique in general: Fluorescence polarisation rises when a labelled molecule tumbles more slowly, as on binding a larger partner.

A further assay deals with CDK4 (Homo sapiens, UniProt P11802). Put plainly: CDK4 kinase assay (Table F).
CDK4, sequence (P11802 whole entry, species assumed): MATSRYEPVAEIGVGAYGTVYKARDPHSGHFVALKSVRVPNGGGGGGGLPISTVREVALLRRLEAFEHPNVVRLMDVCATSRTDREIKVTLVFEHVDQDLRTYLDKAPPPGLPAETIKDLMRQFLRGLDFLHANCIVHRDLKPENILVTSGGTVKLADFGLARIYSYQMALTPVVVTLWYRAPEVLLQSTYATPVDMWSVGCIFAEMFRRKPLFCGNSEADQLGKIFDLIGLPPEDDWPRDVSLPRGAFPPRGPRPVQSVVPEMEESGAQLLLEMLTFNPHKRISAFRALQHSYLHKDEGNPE
CDK4, sequence (P24385 whole entry partner, species assumed): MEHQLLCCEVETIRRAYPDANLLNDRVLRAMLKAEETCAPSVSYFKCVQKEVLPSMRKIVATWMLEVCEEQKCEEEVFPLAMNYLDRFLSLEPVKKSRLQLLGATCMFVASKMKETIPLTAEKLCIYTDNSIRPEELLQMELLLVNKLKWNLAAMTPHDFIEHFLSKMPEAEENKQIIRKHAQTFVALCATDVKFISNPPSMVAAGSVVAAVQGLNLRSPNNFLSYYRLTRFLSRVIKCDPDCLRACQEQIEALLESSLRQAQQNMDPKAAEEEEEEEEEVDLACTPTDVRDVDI
The next assay addresses T2, CDK9/cyclinT1 (Homo sapiens, UniProt P50750).
T2 construct: purchased Millipore
Put plainly: CDK9/cyclinT1 kinase assay, IMAP fluorescence polarization. Here is the method: as §1, §2, §3
CDK9/CDK1/CDK7: final stop concentration is 1× Developer buffer (85% A/15% B), IMAP beads 1/400
(§4) The samples were allowed to incubate for one more hour at room temperature and then the fluorescence polarization was measured. The plate normalized millipolarization (mP) values were plotted against the log of compound concentration for each compound and IC50 values were calculated using the spotfire IC50 calculator and confirmed by visual analysis.

A further assay concerns the target T3, CDK2/cyclinA (Homo sapiens, UniProt P24941).
T3 construct: purchased Millipore
Put plainly: CDK2/cyclinA kinase assay, IMAP fluorescence polarization. Here is the method:
as §1, §2, §3
CDK2: final stop concentration is 1× Developer buffer (100% A), IMAP beads 1/400
as §4

The next assay deals with CDK5 (Homo sapiens, UniProt Q00535). Put plainly: CDK5 kinase assay (Table F).
CDK5, sequence (Q00535 whole entry, species assumed): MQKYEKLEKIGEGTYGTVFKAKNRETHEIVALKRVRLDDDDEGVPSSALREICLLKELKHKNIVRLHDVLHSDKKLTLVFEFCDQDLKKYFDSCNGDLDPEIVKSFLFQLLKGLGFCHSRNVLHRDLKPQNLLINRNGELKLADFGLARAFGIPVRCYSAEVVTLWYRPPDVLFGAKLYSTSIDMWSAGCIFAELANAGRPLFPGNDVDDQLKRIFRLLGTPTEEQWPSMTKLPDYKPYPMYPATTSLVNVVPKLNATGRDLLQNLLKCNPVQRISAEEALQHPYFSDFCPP
CDK5, sequence (Q15078 whole entry partner, species assumed): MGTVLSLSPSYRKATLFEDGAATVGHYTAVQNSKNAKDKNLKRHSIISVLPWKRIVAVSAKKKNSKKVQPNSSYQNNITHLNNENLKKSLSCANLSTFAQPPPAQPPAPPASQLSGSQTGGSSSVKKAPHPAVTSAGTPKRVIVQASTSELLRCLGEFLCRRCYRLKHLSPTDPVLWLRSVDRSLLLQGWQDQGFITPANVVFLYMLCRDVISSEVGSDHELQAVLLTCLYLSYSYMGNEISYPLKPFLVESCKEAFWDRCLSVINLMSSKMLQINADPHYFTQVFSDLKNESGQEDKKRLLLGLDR

T1 sequence (P06493 whole entry): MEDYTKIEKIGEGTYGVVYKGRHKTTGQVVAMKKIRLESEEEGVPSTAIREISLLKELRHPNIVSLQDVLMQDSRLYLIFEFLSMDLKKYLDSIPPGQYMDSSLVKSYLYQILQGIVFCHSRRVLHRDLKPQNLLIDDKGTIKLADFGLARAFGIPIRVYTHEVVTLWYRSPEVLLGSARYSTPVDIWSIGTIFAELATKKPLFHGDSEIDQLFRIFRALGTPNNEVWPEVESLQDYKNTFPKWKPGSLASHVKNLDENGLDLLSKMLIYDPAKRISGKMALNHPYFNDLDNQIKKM
T1 sequence (P14635 whole entry partner): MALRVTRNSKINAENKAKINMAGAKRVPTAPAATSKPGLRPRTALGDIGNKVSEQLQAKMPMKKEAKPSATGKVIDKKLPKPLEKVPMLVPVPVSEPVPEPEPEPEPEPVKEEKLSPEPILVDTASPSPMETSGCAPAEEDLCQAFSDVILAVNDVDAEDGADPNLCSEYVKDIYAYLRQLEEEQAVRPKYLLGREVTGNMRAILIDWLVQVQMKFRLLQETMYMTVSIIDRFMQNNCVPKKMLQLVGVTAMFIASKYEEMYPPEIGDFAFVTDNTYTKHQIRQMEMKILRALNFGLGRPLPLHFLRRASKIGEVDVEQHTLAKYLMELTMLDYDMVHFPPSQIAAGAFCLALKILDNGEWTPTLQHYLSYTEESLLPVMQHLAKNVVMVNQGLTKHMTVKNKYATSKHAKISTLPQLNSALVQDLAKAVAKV
T2 sequence (P50750 whole entry): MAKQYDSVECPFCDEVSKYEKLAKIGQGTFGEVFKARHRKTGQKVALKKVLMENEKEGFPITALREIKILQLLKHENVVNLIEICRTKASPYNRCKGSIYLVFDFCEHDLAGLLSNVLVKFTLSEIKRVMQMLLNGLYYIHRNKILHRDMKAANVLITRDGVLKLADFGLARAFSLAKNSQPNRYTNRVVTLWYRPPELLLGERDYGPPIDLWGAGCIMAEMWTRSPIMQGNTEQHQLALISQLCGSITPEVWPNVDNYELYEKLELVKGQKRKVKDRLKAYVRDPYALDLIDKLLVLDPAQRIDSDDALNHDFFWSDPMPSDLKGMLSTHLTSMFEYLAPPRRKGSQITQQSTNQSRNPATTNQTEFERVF
T2 sequence (O60563 whole entry partner): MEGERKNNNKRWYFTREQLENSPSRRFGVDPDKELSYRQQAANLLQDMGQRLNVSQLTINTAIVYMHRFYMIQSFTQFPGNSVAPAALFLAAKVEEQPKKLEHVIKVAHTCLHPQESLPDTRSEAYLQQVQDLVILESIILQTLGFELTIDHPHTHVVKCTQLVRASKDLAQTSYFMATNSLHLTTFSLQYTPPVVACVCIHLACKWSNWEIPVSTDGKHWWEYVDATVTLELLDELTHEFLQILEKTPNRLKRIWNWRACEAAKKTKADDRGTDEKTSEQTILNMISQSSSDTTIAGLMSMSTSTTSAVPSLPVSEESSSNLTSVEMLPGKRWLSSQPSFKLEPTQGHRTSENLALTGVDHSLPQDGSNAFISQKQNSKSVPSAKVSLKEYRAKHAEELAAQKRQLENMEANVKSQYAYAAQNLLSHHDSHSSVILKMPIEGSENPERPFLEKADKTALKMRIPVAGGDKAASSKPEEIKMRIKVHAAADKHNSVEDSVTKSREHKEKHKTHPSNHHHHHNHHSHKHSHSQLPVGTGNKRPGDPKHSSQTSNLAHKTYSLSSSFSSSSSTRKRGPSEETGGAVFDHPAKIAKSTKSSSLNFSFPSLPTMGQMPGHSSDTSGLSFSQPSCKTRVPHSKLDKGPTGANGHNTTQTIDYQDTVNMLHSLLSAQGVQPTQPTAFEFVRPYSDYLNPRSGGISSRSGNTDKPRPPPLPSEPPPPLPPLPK

As usually defined, the IC50 is the point on the concentration scale where inhibition reaches its midpoint. As for `Cc1cnccc1-c1ccnc(Nc2cccc(Cl)c2)n1` [Compound 44, (3-Chloro-phenyl)-[4-(3-methyl-pyridin-4-yl)-pyrimidin-2-yl]-amine], the half-inhibitory concentration (IC50) at CDK1/cyclinB is below 5 µM; against CDK4, 15 to 50 µM; on CDK9/cyclinT1, below 5 µM; at CDK2/cyclinA, below 5 µM; at CDK5, below 5 µM.

Take `COc1cnccc1-c1nc(Nc2cccc(S(N)(=O)=O)c2)ncc1C` [Compound 47, 3-[4-(3-Methoxy-pyridin-4-yl)-5-methyl-pyrimidin-2-ylamino]-benzenesulfonamide]: the IC50 on CDK1/cyclinB is 5 to 15 µM; against CDK4, below 5 µM; on CDK9/cyclinT1, below 5 µM; against CDK2/cyclinA it was below 5 µM; on CDK5, below 5 µM.

As for `CN(C)CCCNc1ncccc1-c1ccnc(Nc2cccc(Cl)c2)n1` [Compound 63, N-{3-[2-(3-Chloro-phenylamino)-pyrimidin-4-yl]-pyridin-2-yl}-N′,N′-dimethyl-propane-1,3-diamine], the IC50 was below 5 µM at CDK1/cyclinB; 5 to 15 µM at CDK4; below 5 µM against CDK9/cyclinT1; below 5 µM against CDK2/cyclinA; below 5 µM on CDK5.

As to `CC(C)NCCCNc1ncccc1-c1ccnc(Nc2cccc(Cl)c2)n1` [Compound 64, N-{3-[2-(3-Chloro-phenylamino)-pyrimidin-4-yl]-pyridin-2-yl}-N′-isopropyl-propane-1,3-diamine], the IC50 was below 5 µM at CDK1/cyclinB; 5 to 15 µM against CDK4; below 5 µM against CDK9/cyclinT1; below 5 µM on CDK2/cyclinA; below 5 µM at CDK5.

`CC(=O)NCCCNc1ncccc1-c1ccnc(Nc2cccc(S(C)(=O)=O)c2)n1` [Compound 67, N-(3-{3-[2-(3-Methanesulfonyl-phenylamino)-pyrimidin-4-yl]-pyridin-2-ylamino}-propyl)-acetamide]: the IC50 at CDK1/cyclinB was above 50 µM; against CDK4 it was 15 to 50 µM; against CDK9/cyclinT1, below 5 µM; against CDK2/cyclinA it was 5 to 15 µM; at CDK5 it was 5 to 15 µM.

With `CC(=O)NCCCNc1ncccc1-c1ccnc(Nc2cccc(S(N)(=O)=O)c2)n1` [Compound 68, N-(3-{3-[2-(3-Sulfamoyl-phenylamino)-pyrimidin-4-yl]-pyridin-2-ylamino}-propyl)-acetamide], the IC50 on CDK1/cyclinB was below 5 µM; on CDK4, 15 to 50 µM; on CDK9/cyclinT1 it was below 5 µM; at CDK2/cyclinA it was below 5 µM; against CDK5 it was below 5 µM.

As for `CC(=O)NCCCNc1ncccc1-c1ccnc(Nc2cccc(C#N)c2)n1` [Compound 69, N-(3-{3-[2-(3-Cyano-phenylamino)-pyrimidin-4-yl]-pyridin-2-ylamino}-propyl)-acetamide], the IC50 at CDK1/cyclinB was below 5 µM; at CDK4, 15 to 50 µM; against CDK9/cyclinT1, below 5 µM; against CDK2/cyclinA, below 5 µM; on CDK5 it was below 5 µM.

`Clc1cccc(Nc2nccc(-c3cccnc3NCCc3c[nH]cn3)n2)c1` [Compound 79]: the IC50 on CDK1/cyclinB is below 5 µM; against CDK4, 15 to 50 µM; on CDK9/cyclinT1, below 5 µM; at CDK2/cyclinA, below 5 µM; against CDK5, below 5 µM.

Take `NS(=O)(=O)c1cccc(Nc2nccc(-c3cccnc3NCCCn3ccnc3)n2)c1` [Compound 83, 3-{4-[2-(3-Imidazol-1-yl-propylamino)-pyridin-3-yl]-pyrimidin-2-ylamino}-benzenesulfonamide]: the 50% inhibitory concentration (IC50) on CDK1/cyclinB is below 5 µM; against CDK4, 15 to 50 µM; against CDK9/cyclinT1 it was below 5 µM; against CDK2/cyclinA, below 5 µM; against CDK5, below 5 µM.

As for `COc1ncccc1-c1ccnc(Nc2cccc(C(=O)NCCN(C)C)c2)n1` [Compound 97, N-(2-Dimethylamino-ethyl)-3-[4-(2-methoxy-pyridin-3-yl)-pyrimidin-2-ylamino]-benzamide], the IC50 on CDK1/cyclinB was 5 to 15 µM; on CDK9/cyclinT1, below 5 µM; against CDK2/cyclinA, 5 to 15 µM.

As for `COc1ncccc1-c1ccnc(Nc2cccc(NC(C)=O)c2)n1` [Compound 98, N-{3-[4-(2-Methoxy-pyridin-3-yl)-pyrimidin-2-ylamino]-phenyl}-acetamide], the 50% inhibitory concentration (IC50) on CDK1/cyclinB, against CDK9/cyclinT1 and at CDK2/cyclinA was below 5 µM each time.

As to `CNS(=O)(=O)c1cccc(Nc2nccc(-c3cccnc3OC)n2)c1` [Compound 100, 3-[4-(2-Methoxy-pyridin-3-yl)-pyrimidin-2-ylamino]-N-methyl-benzenesulfonamide], the IC50 on CDK1/cyclinB, against CDK9/cyclinT1 and on CDK2/cyclinA was below 5 µM each time.

As to `CCNS(=O)(=O)c1cccc(Nc2nccc(-c3cccnc3OC)n2)c1` [Compound 101, N-Ethyl-3-[4-(2-methoxy-pyridin-3-yl)-pyrimidin-2-ylamino]-benzenesulfonamide], the figures for the half-maximal inhibitory concentration (IC50) at CDK1/cyclinB, on CDK9/cyclinT1 and on CDK2/cyclinA were above 50 µM, below 5 µM and below 5 µM, respectively.

For `COc1ncccc1-c1ccnc(Nc2cccc(S(=O)(=O)NCCO)c2)n1` [Compound 103, N-(2-Hydroxy-ethyl)-3-[4-(2-methoxy-pyridin-3-yl)-pyrimidin-2-ylamino]-benzenesulfonamide], the IC50 at CDK1/cyclinB, on CDK9/cyclinT1 and against CDK2/cyclinA was below 5 µM in each case.

On to `COc1ncccc1-c1ccnc(Nc2cccc(S(=O)(=O)NC3CCCCC3)c2)n1` [Compound 104, N-Cyclohexyl-3-[4-(2-methoxy-pyridin-3-yl)-pyrimidin-2-ylamino]-benzenesulfonamide], for which the IC50 at CDK1/cyclinB, against CDK9/cyclinT1 and at CDK2/cyclinA was above 50 µM in each case.

In the case of `CCN(CC)S(=O)(=O)c1cccc(Nc2nccc(-c3cccnc3OC)n2)c1` [Compound 105, N,N-Diethyl-3-[4-(2-methoxy-pyridin-3-yl)-pyrimidin-2-ylamino]-benzenesulfonamide], the 50% inhibitory concentration (IC50) is above 50 µM on CDK1/cyclinB; 15 to 50 µM against CDK4; above 50 µM at CDK9/cyclinT1; above 50 µM against CDK2/cyclinA; 5 to 15 µM at CDK5.

In the case of `COc1ncccc1-c1ccnc(Nc2cccc(N3CCCC3)c2)n1` [Compound 106, [4-(2-Methoxy-pyridin-3-yl)-pyrimidin-2-yl]-(3-pyrrolidin-1-yl-phenyl)-amine], the values for the IC50 at CDK1/cyclinB, against CDK9/cyclinT1 and at CDK2/cyclinA were 5 to 15 µM, below 5 µM and 15 to 50 µM, respectively.

On to `COc1ncccc1-c1ccnc(Nc2cccc(S(=O)(=O)N3CCCCC3)c2)n1` [Compound 107, [4-(2-Methoxy-pyridin-3-yl)-pyrimidin-2-yl]-[3-(piperidine-1-sulfonyl)-phenyl]-amine], for which the IC50 is 5 to 15 µM on CDK1/cyclinB, below 5 µM at CDK9/cyclinT1 and below 5 µM against CDK2/cyclinA.

Regarding `CCOC(=O)c1cccc(Nc2nccc(-c3cccnc3OC)n2)c1` [Compound 108, 3-[4-(2-Methoxy-pyridin-3-yl)-pyrimidin-2-ylamino]-benzoic acid ethyl ester], the IC50 at CDK1/cyclinB, against CDK9/cyclinT1 and against CDK2/cyclinA was below 5 µM in each case.

Regarding `COc1ncccc1-c1ccnc(Nc2cccc(C(=O)OC(C)(C)C)c2)n1` [Compound 109, 3-[4-(2-Methoxy-pyridin-3-yl)-pyrimidin-2-ylamino]-benzoic acid tert-butyl ester], the IC50 was above 50 µM on CDK1/cyclinB, below 5 µM at CDK9/cyclinT1 and below 5 µM at CDK2/cyclinA.

As to `COc1ncccc1-c1ccnc(Nc2cccc(-c3nncn3C)c2)n1` [Compound 111, [4-(2-Methoxy-pyridin-3-yl)-pyrimidin-2-yl]-[3-(4-methyl-4H-[1,2,4]triazo1-3-yl)-phenyl]-amine], the results for the half-inhibitory concentration (IC50) at CDK1/cyclinB, against CDK9/cyclinT1 and against CDK2/cyclinA were 5 to 15 µM, below 5 µM and below 5 µM, respectively.

With `COc1ncccc1-c1ccnc(Nc2cccc(C3CCNCC3)c2)n1` [Compound 113, [4-(2-Methoxy-pyridin-3-yl)-pyrimidin-2-yl]-(3-piperidin-4-yl-phenyl)-amine], the IC50 at CDK1/cyclinB, against CDK9/cyclinT1 and on CDK2/cyclinA was below 5 µM throughout.

Consider `COc1ncccc1-c1ccnc(Nc2cccc(C3CCN(C(=O)OC(C)(C)C)CC3)c2)n1` [Compound 114, 4-{3-[4-(2-Methoxy-pyridin-3-yl)-pyrimidin-2-ylamino]-phenyl}-piperidine-1-carboxylic acid tert-butyl ester], for which the IC50 at CDK1/cyclinB, against CDK9/cyclinT1 and against CDK2/cyclinA was above 50 µM each time.

With `COc1ncccc1-c1ccnc(Nc2cccc(-c3ccccc3)c2)n1` [Compound 115, Biphenyl-3-yl-[4-(2-methoxy-pyridin-3-yl)-pyrimidin-2-yl]-amine], the half-maximal inhibitory concentration (IC50) on CDK1/cyclinB was above 50 µM; on CDK9/cyclinT1 it was below 5 µM; against CDK2/cyclinA, above 50 µM.

`COc1ncccc1-c1ccnc(Nc2ccc([N+](=O)[O-])cc2)n1` [Compound 116, [4-(2-Methoxy-pyridin-3-yl)-pyrimidin-2-yl]-(4-nitro-phenyl)-amine]: the IC50 at CDK1/cyclinB, on CDK9/cyclinT1 and at CDK2/cyclinA was above 50 µM in each case.
